Assay results as given in ChEMBL document CHEMBL3739313, “4-Methylcoumarins with cytotoxic activity against T24 and RT4 human bladder cancer cell lines” (2015).
Activity calls are given as the source filed them. The calls are words filed in the database; no cut-off is given here.

Key:
[1] = Cytotoxicity against human T24 cells assessed as reduction of cell viability at 10 uM after 48 hrs by MTT assay; assay type: functional, T-24
[2] = Cytotoxicity against human T24 cells assessed as reduction of cell viability at 25 uM after 48 hrs by MTT assay; assay type: functional, T-24
[3] = Cytotoxicity against human T24 cells assessed as reduction of cell viability at 50 uM after 48 hrs by MTT assay; assay type: functional, T-24
[4] = Cytotoxicity against human T24 cells assessed as reduction of cell viability at 100 uM after 48 hrs by MTT assay; assay type: functional, T-24
[5] = Cytotoxicity against human T24 cells assessed as reduction of cell viability at 50 uM after 24 hrs by MTT assay; assay type: functional, T-24
[6] = Cytotoxicity against human T24 cells assessed as reduction of cell count at 50 uM after 24 hrs; assay type: functional, T-24; set-up: scale not given: the % may be the effect or the level left
RT-4 = assay: Cytotoxicity against human RT4 cells assessed as reduction of cell viability at 5 to 100 uM after 24 hrs by MTT assay; assay type: functional, cell-based
[7] = Cell cycle arrest in human T24 cells assessed as accumulation at sub-G1 phase at 50 to 100 uM after 24 hrs by flow cytometry assay; assay type: functional, cell-based; details: T-24
T-24 = assay: Induction of apoptosis in human T24 cells at 50 uM after 24 hrs using annexin V/propidium iodide staining by flow cytometry assay; assay type: functional

Cc1cc(=O)oc2c(O)c(O)cc(C(=O)O)c12
Activity [1]: 21.37% | Activity [2]: 62.26% | Activity [3]: 63.95% | Activity [4]: 65.64% | Activity [5]: 24.14% | Activity [6]: 44.52% | Activity (RT-4): inactive | Activity [7]: Active | Activity (T-24): 22.57%
